Reference: patent US11730830B2, “Topical application of nerve labeling dyes for image-guided surgery” (General Electric Company, priority 2016, dated 2023)

Key:
[1] = tested on: rat nerve tissue sections; assay: Ex vivo labeling of cryosectioned nerve tissue; details: 10 uM, 1 h, buffer with 10% Cremophor EL and 65% rat serum in PBS
Description: Various nerves were harvested from male Sprague Dawley rats. Tissue was fixed by perfusion and post-fixed with 10% neutral buffered formalin. Following post-fixation, tissue was cryoprotected in a 20% sucrose solution made in phosphate buffered saline (PBS). Nerves were then flash-frozen using methanol and dry ice in OCT media. In some cases, polyvinylidene fluoride membranes were used to help keep the nerves vertical in the OCT media. 5-10 micron section were sliced on a Leica microtome and stored in a −80° C. freezer prior to staining with agents (1)-(5).
For ex vivo staining of nerve sections, the slides were rinsed in PBS (3×5 min). Contrast agent (with a final concentration of 10 uM) was added onto the tissue in a buffer containing 10% Cremophor EL and 65% rat serum in PBS. The slides were incubated for 1 h in a dark, humid chamber after which they were washed with PBS (3×5 min), cover-slipped, and imaged using a custom filter cube (excitation filter: 387 nm with 11 nm band pass, 409 nm dichroic mirror; emission filter: 409 nm long pass). A buffer only control was also performed using exactly the same procedure to determine autofluorescence under the same settings.
Molecules that are related to the “push-pull” core structure of this class of compound would also benefit from this new method of application. The following is an example of ex vivo labeling of resected nerve tissue. In here, compounds used to stain cryo sectioned nerve tissue from rats.

nerves = assay: Intraoperative topical application at the surgical site, fluorescence nerve imaging in murine model; assay type: in vivo, mouse
Description: (§1) Commercial small animal system: A fluorescence stereomicroscope (SteREO Lumar V12, Carl Zeiss Inc., Thornwood, N.Y.) equipped with a multispectral imaging camera (Nuance, CRI, Woburn, Mass.) was used with an exposure time of 1-5 s. Excitation of the flurophores was achieved using a filter centered at 406 nm with a 15 nm bandwidth. The fluorescence emission spectrum was recorded at wavelengths ranging from 420 to 720 nm at 10-nm increments using the attached multispectral camera. Alternatively, we had also used an emission filter with 550 long pass filter (in the absence of multispectral camera).
(§2) The laparoscope module comprises a standard 10 mm zero degree surgical laparoscope with 70 degree field of view, a 4 mm diameter, 1800 mm long laparoscope light guide, 35 mm video coupler, a compact 90 gram, 659×494 pixel GigE color camera (acA640-90gc Basler, Ahrensburg, Germany), and a 405 nm blocking filter (BLP01-405R Semrock, Rochester, N.Y.), which has >97% transmission from 420 to 800 nm. The ⅓″ format sensor provides high sensitivity with 7.4 μm pixel size and adequate field of view (40 degrees out of 70 degrees passed by the laparoscope). The video coupler interfaces with the eyepiece of the laparoscope providing an interchangeable set up for different types of laparoscopes. The 405 nm filter is secured directly in front of the image sensor with a c-mount retaining ring. The camera threads onto the video coupler directly.
Illumination for white light and fluorescence imaging is coupled into a single light guide using conventional optics. The light coupling module consists of two 32 mm aspheric lenses to collimate a white light LED and a 500 mW, 405 nm blue laser diode coupled into a multimode fiber with 400 μm diameter (Shanghai Laser & Optics Century Co., Ltd., China). The LED spectrum is filtered with a 450 nm long pass filter (NT49-819, Edmund Optics, Barrington, N.J.) to minimize excitation of the fluorescent agent, while maintaining the white light color spectrum. The LED and laser are combined with a 425 nm dichroic mirror (DMLP425R, Thorlabs). The combined illumination is coupled into the light guide with a third 32 mm aspheric lens (ACL4532, Thorlabs). The maximum irradiance from the LED and 405 nm laser are 2.0 mW/cm2 and 7.3 mW/cm2, respectively, at 25 mm from the tip of the laparoscope. Formulation, dosing, and kinetics for in vivo imaging following systemic IV injection of contrast agent in animal model:
Several different formulations were tested, including but not limited to: • Formulation 1: 10% PEG-300; 20% PG; 0.4% Carbopol; 69.6% water; • Formulation 2: 10% DMSO; 20% PEG-800; 20% PG; 0.1% Polysorbate-80; 49.9% Water; • Formulation 3: 30% PEG-300; 5% DMSO; 10% PVA; 55% water; • Formulation 4: 30% PEG-300; 10% PVA; 60% water; • Formulation 5: 30% PEG-300; 5% DMSO; 30% Pluronic F-68; 0.1% Polysorbate-80; 34.9% water; • Formulation 6: 20% PEG-300; 10% PG; 5% PVP; 5% Laurocapram; 60% water; • Formulation 7: 20% PEG-300; 10% PG; 5% PVP; 5% Laurocapram; 5% EtOH; 5% oleic acid; 10% Tween-80; 40% water; where: PVA=polyvinyl alcohol; PVP=polyvinyl pyrrolidone; and PEG=polyethylene glycol. […]
Topically administered nerve labeling dyes were also able to label nerves in a living animal. The fluorescence from nerves can be detected within minutes after intraoperative topical application. Representative white light and fluorescence images of topically administered FORMULA I(f) in a mouse are shown in FIG. 2A (white light) and FIG. 2B (fluorescence). […]

[2] = Solubility check of the IV formulation; assay type: physicochemical; details: propylene glycol, 2-HPβCD, water, pH 7.4; visual, centrifugation, buffer dissolution, dynamic light scattering
Description: (§3) For systemic administration by IV injection, the contrast agents were formulated using the following excipients: 5-15% propylene glycol (Fisher P355-1), 5-30% 2-hydroxypropyl-β-cyclodextrin (2-HPβCD, Sigma H5784) and 70-90% distilled/deionized water. In some cases, PEG-300 and DMSO were also added. The IV formulation was brought to a final pH of 7.4 using 1M of hydrochloric acid.
Specifically, IV formulation for FORMULA I(f) consisted of 80% distilled/deionized water, 10% 2-hydroxypropyl-β-cyclodextrin (2-HPβCD, Sigma H5784), and 10% propylene glycol (Fisher P355-1).

sciatic nerve = assay: Kinetics of uptake and clearance after systemic IV injection, in vivo fluorescence imaging; parameters: species or system murine; details: IV injection 16.6 mg/kg
Description: as §1, §3
Specifically, IV formulation for FORMULA I(f) consisted of 80% distilled/deionized water, 10% 2-hydroxypropyl-β-cyclodextrin (2-HPβCD, Sigma H5784), and 10% propylene glycol (Fisher P355-1). […]
A dose of 16.6 mg/kg of FORMULA I(f) was used for measuring the nerve fluorescence at 0.5, 1, 2, 3 and 4 hours after IV injection. […]

nerve = assay: Intraoperative topical application in porcine surgical model, real-time fluorescence imaging; assay type: in vivo; details: pig
Description: as §2
Illumination for white light and fluorescence imaging is coupled into a single light guide using conventional optics. The light coupling module consists of two 32 mm aspheric lenses to collimate a white light LED and a 500 mW, 405 nm blue laser diode coupled into a multimode fiber with 400 μm diameter (Shanghai Laser & Optics Century Co., Ltd., China). The LED spectrum is filtered with a 450 nm long pass filter (NT49-819, Edmund Optics, Barrington, N.J.) to minimize excitation of the fluorescent agent, while maintaining the white light color spectrum. […]

solubility in the IV formulation [2] | time of maximum sciatic nerve and adipose tissue fluorescence (sciatic nerve; measured at 0.5, 1, 2, 3 and 4 hours) | Compound | fluorescent staining of nerve tissue sections [1] | nerve labeling by topical application (nerves; mouse, small animal commercial instrument) | best nerve-to-muscle ratio (sciatic nerve; 1 h post-injection, murine model) | nerve visibility under fluorescence imaging versus white light (nerve; 0.3 milligrams in Formulation 6, retroperitoneal area, 3 minutes, saline irrigation) | nerve visibility under fluorescence guidance versus white light (nerve; 4 milligrams in Formulation 4, 5 minutes, warm saline irrigation) | topical dose that effectively visualizes fluorescent nerves (nerves; Formulation 6, incubated 3 minutes, irrigated with saline, mouse model) | penetration into the nerve bundle, fluorescence microscopy of cryosectioned sciatic nerve (nerves; after topical application, irrigation and excision, 15 micron sections, murine model) | fluorescence intensity from surrounding muscle tissue, topical versus systemic administration (nerves; topical about 0.1 milligrams in Formulation 4 versus IV about 16 mg/kg, multispectral imaging, murine model) | detection of very fine nerve fibers in a brachial plexus branch (nerves; topical in Formulation 4, 5 minutes, irrigated with sterile saline, dual-mode laparoscopic instrument, mouse)
 |  | COc1cc(/C=C/c2ccc(S(C)(=O)=O)cc2)ccc1/C=C/c1ccc(N)cc1 [FORMULA I(e)] | most robust fluorescent staining |  |  |  |  |  |  |  | 
 |  | COc1cc(/C=C/c2ccc(C#N)cc2)ccc1/C=C/c1ccc(N)cc1 [FORMULA I(d)] | most robust fluorescent staining | fluorescence nerve labeling |  |  |  |  |  |  | 
Complete solubility | 1 h | COc1cc(/C=C/c2ccc(S(=O)(=O)N3CCN(CCO)CC3)cc2)ccc1/C=C/c1ccc(N)cc1 [FORMULA I(f)] | most robust fluorescent staining |  | 3.7 | more pronounced under fluorescence imaging compared to white light imaging | highly detectable under fluorescence guidance | 0.01 mg | donut-shaped myelin bundles are stained | lower across all the emission wavelengths | more readily detected under fluorescence guidance
